This passage reports T/C results from PubChem BioAssay AID274 (DTP/NCI, 2004).

In the assay the test system is BDF1 mice, Lewis lung carcinoma iv, survival T/C. Put plainly: NCI In Vivo Anticancer Drug Screen. Data for tumor model Lewis Lung Carcinoma (intravenous) in B6D2F1 (BDF1) mice. The note with it: endpoint: median survival time, schedule: Q01DX009 (ip), higher = longer survival. Here is the method:
The antitumor activity of compounds was measured in mice bearing transplantable tumors. Survival or tumor size were measured and the results are expressed as the measurement made in the treated group (T) divided by the measurement made in the vehicle treated control group (C). The tumor model used in this assay is Lewis Lung Carcinoma (intravenous) in B6D2F1 (BDF1) mice

The mark [1] stands for this setting: dose: 100.0 mg/kg/injection, vehicle: saline.
Where [2] appears, read: dose: 3.12 mg/kg/injection, vehicle: Klucel (hydroxypropylcellulose) (HPC).
Where [3] appears, read: dose: 6.25 mg/kg/injection, vehicle: Klucel (hydroxypropylcellulose) (HPC).
Setting [4] is: dose: 25.0 mg/kg/injection, vehicle: Klucel (hydroxypropylcellulose) (HPC).
Setting [5] is: dose: 50.0 mg/kg/injection, vehicle: Klucel (hydroxypropylcellulose) (HPC).
Where [6] appears, read: dose: 100.0 mg/kg/injection, vehicle: Klucel (hydroxypropylcellulose) (HPC).
The mark [7] stands for this setting: dose: 12.5 mg/kg/injection, vehicle: saline with Tween-80.
Where [8] appears, read: dose: 50.0 mg/kg/injection, vehicle: saline with Tween-80.
Where [9] appears, read: dose: 100.0 mg/kg/injection, vehicle: saline with Tween-80.
The mark [10] stands for this setting: dose: 12.5 mg/kg/injection, vehicle: Klucel (hydroxypropylcellulose) (HPC).
[11] abbreviates: dose: 32.0 mg/kg/injection, vehicle: Klucel (hydroxypropylcellulose) (HPC).
Setting [12] is: dose: 64.0 mg/kg/injection, vehicle: Klucel (hydroxypropylcellulose) (HPC).
Where [13] appears, read: dose: 128.0 mg/kg/injection, vehicle: Klucel (hydroxypropylcellulose) (HPC).
Where [14] appears, read: dose: 256.0 mg/kg/injection, vehicle: Klucel (hydroxypropylcellulose) (HPC).
[15] abbreviates: dose: 512.0 mg/kg/injection, vehicle: Klucel (hydroxypropylcellulose) (HPC).
[16] abbreviates: dose: 12.5 mg/kg/injection, vehicle: saline.
Where [17] appears, read: dose: 25.0 mg/kg/injection, vehicle: saline.
[18] abbreviates: dose: 50.0 mg/kg/injection, vehicle: saline.
The mark [19] stands for this setting: dose: 25.0 mg/kg/injection, vehicle: saline with Tween-80.
The mark [20] stands for this setting: dose: 6.25 mg/kg/injection, vehicle: saline with Tween-80.

Several values for one entry are separate records, joined by “and”; a condition that tells them apart may be missing. Identical values can stand only once. Inconclusive results and toxic doses are left out.

For `NC(=O)c1[nH]nc(C2OC(CO)C(O)C2O)c1O` (configuration not stated), the T/C by setting is: (dose: 78.13 micrograms/kg/injection, vehicle: water) 98 % of control; (dose: 156.25 micrograms/kg/injection, vehicle: water) 118 % of control; (dose: 312.5 micrograms/kg/injection, vehicle: water) 87 % of control; (dose: 625.0 micrograms/kg/injection, vehicle: water) 122 % of control.

In the case of `CC(CNC(=O)CCOS(C)(=O)=O)NC(=O)CCOS(C)(=O)=O` (configuration not stated), the T/C under setting [1] was 106 % of control.

`Nc1nc([Se])c2ncn(C3OC(CO)C(O)C3O)c2n1` (configuration not stated): the T/C (dose: 2.0 mg/kg/injection, vehicle: saline) is 96 % of control; the T/C (dose: 4.0 mg/kg/injection, vehicle: saline) was 99 % of control; the T/C (dose: 8.0 mg/kg/injection, vehicle: saline) was 118 % of control.

`O=C(Nc1ccc(Cl)c(Cl)c1)Nc1c(Oc2ccc(Cl)c(Cl)c2)ccc(Cl)c1S(=O)(=O)O`: the T/C under setting [2] is 113 % of control; the T/C under setting [3] was 104 % of control; the T/C under setting [4] is 109 % of control; the T/C under setting [5] is 105 % of control; the T/C under setting [6] is 100 % of control.

On to `Cc1cn(C2CC(O)C(CO)O2)c(=O)[nH]c1=O` (configuration not stated), for which the T/C runs as follows: under setting [7], 89 % of control; under setting [8], 88 % of control; under setting [9], 94 % of control; (dose: 200.0 mg/kg/injection, vehicle: saline with Tween-80) 98 % of control.

Consider `O=C(O)/C=C/C(=O)Nc1ccc(Cl)c(Cl)c1`, for which the T/C by setting is: under setting [10], 102 % of control; under setting [4], 99 % of control; under setting [5], 98 % of control; under setting [6], 104 % of control.

Turning to `Cc1c[nH]c(=O)[nH]c1=O`, the T/C reads like this: under setting [11], 104 % of control; under setting [12], 114 % of control; under setting [13], 93 % of control; under setting [14], 101 % of control; under setting [15], 92 % of control.

In the case of `Nc1nc(/C=C(/O)c2ccccc2)c2ncn(C3OC(CO)C(O)C3O)c2n1` (configuration not stated), the T/C by setting is: under setting [16], 109 % of control; under setting [17], 107 % of control; under setting [18], 102 % of control; under setting [1], 104 % of control.

For the compound `O=[n+]1c2c(n([O-])c3ccccc31)-c1cccc3cccc-2c13`, the T/C under setting [19] was 100 % of control, the T/C under setting [8] is 104 % of control and the T/C under setting [9] is 105 % of control.

In the case of `[N-]=[N+]=C1N=CN=C1c1ncn[nH]1`, the T/C runs as follows: under setting [2], 98 % of control; under setting [3], 100 % of control; under setting [10], 95 % of control; under setting [4], 120 % of control; under setting [5], 97 % of control.

In the case of `OC(CBr)C(O)C(O)C(O)CBr` (configuration not stated), the T/C by setting is: under setting [5], 117 % of control; under setting [6], 109 % of control; (dose: 200.0 mg/kg/injection, vehicle: Klucel (hydroxypropylcellulose) (HPC)) 103 % of control; (dose: 400.0 mg/kg/injection, vehicle: Klucel (hydroxypropylcellulose) (HPC)) 111 % of control; (dose: 800.0 mg/kg/injection, vehicle: Klucel (hydroxypropylcellulose) (HPC)) 97 % of control.

For `COC(OC(CO)C(O)S(=O)(=O)O)C(O)S(=O)(=O)O` (configuration not stated), the T/C runs as follows: under setting [16], 105 % of control; under setting [17], 106 % of control; under setting [18], 102 % of control; under setting [1], 99 % of control; (dose: 400.0 mg/kg/injection, vehicle: saline) 90 % of control.

In the case of `C=CCCC(=O)CCCC(=O)O[C@@H]1[C@@H]2[C@H](CC1(C)C)[C@H](O)[C@@]13O[C@@H]1[C@H](O)[C@@]1(CO1)[C@@]23C`, the T/C is 116 % of control (dose: 6.2 micrograms/kg/injection, vehicle: Klucel (hydroxypropylcellulose) (HPC)); 120 % of control (dose: 12.5 micrograms/kg/injection, vehicle: Klucel (hydroxypropylcellulose) (HPC)); 107 % of control (dose: 25.0 micrograms/kg/injection, vehicle: Klucel (hydroxypropylcellulose) (HPC)); 112 % of control (dose: 50.0 micrograms/kg/injection, vehicle: Klucel (hydroxypropylcellulose) (HPC)).

Take `COC1C(CO)OC(n2cnc3c(=S)nc(N)[nH]c32)C1O` (configuration not stated): the T/C under setting [5] is 97 % of control and the T/C under setting [6] was 108 % of control.

Take `Nc1ccnc(=O)[nH]1`: the T/C runs as follows: under setting [11], 111 % of control; (dose: 32.0 mg/kg/injection, vehicle: saline with Tween-80) 103 % of control; under setting [12], 98 % of control; under setting [13], 95 % of control; under setting [14], 102 % of control; (dose: 256.0 mg/kg/injection, vehicle: saline with Tween-80) 119 % of control. Moreover, the T/C is, setting by setting: under setting [15], 86 % of control; (dose: 512.0 mg/kg/injection, vehicle: saline with Tween-80) 107 % of control.

On to `OC1CCCC2CCCNC12` (configuration not stated), for which the T/C was 104 % of control (dose: 3.12 mg/kg/injection, vehicle: saline with Tween-80); 100 % of control under setting [20]; 152 % of control under setting [7]; 96 % of control under setting [19]; 99 % of control under setting [8]; 95 % of control under setting [9].

As to `CCC(C(=O)O)C(=O)O.[NH-]CC1CCCC[N-]1.[Pt+2]`, the T/C was 98 % of control and 100 % of control under setting [17]; 100 % of control under setting [18].

As to `Cc1cc(N(CC(C)Br)CC(C)Br)ccc1N=Nc1ccccc1C(=O)O` (configuration not stated), the T/C was 117 % of control under setting [20] and 114 % of control under setting [7].
